Data published in patent US20080045492A1, “Mitotic Kinesin Inhibitors” (priority 2004, published 2008).
Read-outs that look alike come from different tables or passages of the source.

Biological target: T1, human KSP motor domain (KSP(367H)) (Homo sapiens, UniProt P52732)
T1 construct: were used to amplify the motor domain and the neck linker region; made in house; host or cells: E. coli BL21 (DE3), pRSETa
T1 sequence (P52732 18-359 limits assumed): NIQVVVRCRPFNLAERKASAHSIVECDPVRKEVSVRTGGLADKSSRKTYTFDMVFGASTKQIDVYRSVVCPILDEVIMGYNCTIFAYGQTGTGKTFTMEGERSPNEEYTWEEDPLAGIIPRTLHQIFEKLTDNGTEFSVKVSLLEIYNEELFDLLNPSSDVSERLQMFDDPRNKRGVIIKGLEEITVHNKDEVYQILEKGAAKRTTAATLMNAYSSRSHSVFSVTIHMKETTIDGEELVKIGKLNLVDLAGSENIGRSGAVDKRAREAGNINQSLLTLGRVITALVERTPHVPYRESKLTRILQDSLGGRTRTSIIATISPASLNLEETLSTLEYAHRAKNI
Assay: Kinesin ATPase In Vitro Assay
Type: biochemical
Protocol: I. Kinesin ATPase In Vitro Assay
The N-terminal primer 5′-[…] (SEQ. ID. NO.: 1) and the C-terminal primer 5′-[…] […] […] The PCR products were digested with AseI and XhoI, ligated into the NdeI/XhoI digestion product of pRSETa (Invitrogen) and transformed into E. coli BL21 (DE3).
Cells were grown at 37° C. to an OD600 of 0.5. After cooling the culture to room temperature expression of KSP was induced with 100 μM IPTG and incubation was continued overnight. Cells were pelleted by centrifugation and washed once with ice-cold PBS. Pellets were flash-frozen and stored −80° C.
Cell pellets were thawed on ice and resuspended in lysis buffer (50 mM K-HEPES, pH 8.0, 250 mM KCl, 0.1% Tween, 10 mM imidazole, 0.5 mM Mg-ATP, 1 mM PMSF, 2 mM benzimidine, 1× complete protease inhibitor cocktail (Roche)). Cell suspensions were incubated with 1 mg/ml lysozyme and 5 mM β-mercaptoethanol on ice for 10 minutes, followed by sonication (3×30 sec). All subsequent procedures were performed at 4° C. Lysates were centrifuged at 40,000×g for 40 minutes. Supernatants were diluted and loaded onto an SP Sepharose column (Pharmacia, 5 ml cartridge) in buffer A (50 mM K-HEPES, pH 6.8, 1 mM MgCl2, 1 mM EGTA, 10 μM Mg-ATP, 1 mM DTT) and eluted with a 0 to 750 mM KCl gradient in buffer A. Fractions containing KSP were pooled and incubated with Ni-NTA resin (Qiagen) for one hour. The resin was washed three times with buffer B (Lysis buffer minus PMSF and protease inhibitor cocktail), followed by three 15-minute incubations and washes with buffer B. Finally, the resin was incubated and washed for 15 minutes three times with buffer C (same as buffer B except for pH 6.0) and poured into a column. KSP was eluted with elution buffer (identical to buffer B except for 150 mM KCl and 250 mM imidazole). KSP-containing fractions were pooled, made 10% in sucrose, and stored at −80° C.
Microtubules are prepared from tubulin isolated from bovine brain. Purified tubulin (>97% MAP-free) at 1 mg/ml is polymerized at 37° C. in the presence of 10 μM paclitaxel, 1 mM DTT, 1 mM GTP in BRB80 buffer (80 mM K-PIPES, 1 mM EGTA, 1 mM MgCl2 at pH 6.8). The resulting microtubules are separated from non-polymerized tubulin by ultracentrifugation and removal of the supernatant. The pellet, containing the microtubules, is gently resuspended in 10 μM paclitaxel, 1 mM DTT, 50 μg/ml ampicillin, and 5 μg/ml chloramphenicol in BRB80.
The kinesin motor domain is incubated with microtubules, 1 mM ATP (1:1 MgCl2: Na-ATP), and compound at 23° C. in buffer containing 80 mM K-HEPES (pH 7.0), 1 mM EGTA, 1 mM DTT, 1 mM MgCl2, and 50 mM KCl. […] Free phosphate from the ATP hydrolysis reaction is measured via a quinaldine red/ammonium molybdate assay by adding a […] of quench C (e.g., to a mixture of 40 μl reaction volume+40 μl stop buffer is then added 120 μl quench C). […] Quench C is a 2:1 ratio of quench A:quench B The reaction is incubated for 5-10 minutes at 23° C., and the absorbance of the phospho-molybdate complex is measured at 540 nm.

[1] = kinesin motor domain with microtubules, 1 mM ATP, 23° C., read-out: IC50

| IC50 [µM] | Compound | IC50 [1] [µM] |
| --- | --- | --- |
| – | CON(C)C(=O)C1=NN(c2cc(C)ccc2F)CC1(CCCO)c1ccccc1 (racemic) [Compound 2-1, (±)-1-(2-fluoro-5-methylphenyl)-4-(3-hydroxypropyl)-N-methoxy-N-methyl-4-phenyl-4,5-dihydro-1H-pyrazole-3-carboxamide] | ≤ 50 |
| ≤ 50 | CC(=O)C1=NN(c2cc(C)ccc2F)CC1(CCCN(C)C)c1ccccc1 (racemic) [Compound 2-3, (±)-(1-[4-[3-(dimethylamino)propyl]-1-(2-fluoro-5-methylphenyl)-4-phenyl-4,5-dihydro-1H-pyrazol-3-yl]ethanone] | – |
| – | CC(=O)C1=NN(c2cccc(F)c2)CC1c1ccccc1 (racemic) [Compound 3-5, (±)-1-[1-(3-fluorophenyl)-4-phenyl-4,5-dihydro-1H-pyrazol-3-yl]ethanone] | ≤ 50 |
| – | CCOC(=O)C1=NN(c2cc(F)ccc2F)C(N2CCOCC2)C1c1ccccc1 (racemic) [Compound 44, (±)-Ethyl 1-(2,5-difluorophenyl)-5-morpholin-4-yl-4-phenyl-4,5-dihydro-1H-pyrazole-3-carboxylate] | ≤ 50 |
| – | CC(=O)c1nn(-c2cc(F)ccc2F)cc1-c1ccccc1 [Compound 4-7, 1-[1-(2,5-difluorophenyl)-4-phenyl-1H-pyrazol-3-yl]ethanone] | ≤ 50 |
